How the values were obtained:
[1] = logP determination via HPLC retention times (calibration with unbranched alkan-2-ones); format: physicochemical
Source text: Die Kalibrierung wurde jeweils mit unverzweigten Alkan-2-onn (3 bis 16 Kohlenstoff Atome) mit bekannten IogP Werten durchgeführt (Bestimmung von den logP Werten über die Retentionszeiten durch lineare Interpolation zwischen zwei bestimmten Alkazionen). Die Lambda-max Werte wurden jeweils in den Maxima der Chromatographie-Signale durch UV Spektren zwischen 190nm und 400nm bestimmt.

[2] = system: Venturia inaequalis; test: Venturia test (apple) / protective; format: in vivo; details: 100 ppm Wirkstoff; apple plants sprayed protectively; evaluation 10 days after inoculation
Source text: Venturia - Test (Apfel) / protektiv
(§1) Zur Herstellung einer zweckmäßigen Wirkstoffzubereitung vermischt man 1 Gewichtsteil Wirkstoff mit den angegebenen Mengen Lösungsmittel und Emulgator und verdünnt das Konzentrat mit Wasser auf die gewünschte Konzentration.
Zur Prüfung auf protektive Wirksamkeit werden junge Pflanzen mit der Wirkstoffzubereitung in der angegebenen Aufwandmenge besprüht. Nach Antrocknen des Spritzbelages werden die Pflanzen mit einer wäßrigen Konidiensuspension des Apfelschorferregers Venturia inaequalis inokuliert und verbleiben dann 1 Tag bei ca. 20°C und 100% relativer Luftfeuchtigkeit in einer Inkubations-kabine.
Die Pflanzen werden dann im Gewächshaus bei ca, 21°C und einer relativen Luftfeuchtigkeit von ca. 90% aufgestellt.
(§2) 10 Tage nach der Inokulation erfolgt die Auswertung. Dabei bedeutet 0% ein Wirkungsgrad, der demjenigen der Kontrolle entspricht, während ein Wirkungsgrad von 100% bedeutet, daß kein Befall beobachtet wird.

[3] = system: Botrytis cinerea; test: Botrytis test (bean) / protective; format: in vivo; details: 250 ppm Wirkstoff; bean plants sprayed protectively; lesion size 2 days after inoculation
Source text: Botrytis - Test (Bohne) / protektiv
as §1
Zur Prüfung auf protektive Wirksamkeit werden junge Pflanzen mit der Wirkstoff-zubereitung in der angegebenen Aufwandmenge besprüht. Nach Antrocknen des Spritzbelages werden auf jedes Blatt 2 kleine mit Botrytis cinerea bewachsene Agarstückchen aufgelegt. Die inokulierten Pflanzen werden in einer abgedunkelten Kammer bei ca. 20°C und 100% relativer Luftfeuchtigkeit aufgestellt.
2 Tage nach der Inokulation wird die Größe der Befallsflecken auf den Blättern ausgewertet. Dabei bedeutet 0% ein Wirkungsgrad, der demjenigen der Kontrolle entspricht, während ein Wirkungsgrad von 100% bedeutet, daß kein Befall beobachtet wird.

[4] = system: Leptosphaeria nodorum; test: Leptosphaeria nodorum test (wheat) / protective; format: in vivo; details: 1000 ppm Wirkstoff; wheat plants sprayed protectively; evaluation 10 days after inoculation
Source text: Leptosphaeria nodorum-Test (Weizen) / protektiv
(§3) Zur Herstellung einer zweckmäßigen Wirkstoffzubereitung vermischt man 1 Gewichtsteil Wirkstoff mit den angegebenen Mengen Lösungsmittel und Emulgator und verdünnt das Konzentrat mit Wasser auf die gewünschte Konzentration,
(§4) Zur Prüfung auf protektive Wirksamkeit werden junge Pflanzen mit der Wirkstoffzubereitung in der angegebenen Aufwandmenge besprüht Nach Antrocknen des Spritzbelages werden die Pflanzen mit einer Sporensuspension von Leptosphaeria nodorum besprüht, Die Pflanzen verbleiben 48 Stunden bei 20°C und 100 % relativer Luftfeuchtigkeit in einer Inkubationskabine.
Die Pflanzen werden in einem Gewächshaus bei einer Temperatur von ca. 20°C und einer relativen Luftfeuchtigkeit von 80 % aufgestellt.
as §2

[5] = system: Pyrenophora teres; test: Pyrenophora teres test (barley) / protective; format: in vivo; details: 1000 ppm Wirkstoff; barley plants sprayed protectively; evaluation 8 days after inoculation
Source text: Pyrenophora teres-Test (Gerste) / protektiv
as §1
as §4, with “angegeben” for “angegebenen”, “besprüht,” for “besprüht”, “Konidiensuspension” for “Sporensuspension”, “Pyrenophora teres besprüht.” for “Leptosphaeria nodorum besprüht,”
Die Pflanzen werden dann in einem Gewächshaus bei einer Temperatur von ca. 20°C und relativen Luftfeuchtigkeit von ca. 80 % aufgestellt.
8 Tage nach der Inokulation erfolgt die Auswertung. Dabei bedeutet 0 % ein Wirkungsgrad, der demjenigen der Kontrolle entspricht, während ein Wirkungsgrad von 100 % bedeutet, daß kein Befall beobachtet wird, […]

[6] = system: Fusarium nivale (var. majus); test: Fusarium nivale (var. majus) test (wheat) / protective; format: in vivo; details: 1000 ppm Wirkstoff; wheat plants sprayed protectively; evaluation 6 days after inoculation
Source text: Fusarium nivale (var. majus)-Test (Weizen) / protektiv
as §3
Zur Prüfung auf protektive Wirksamkeit werden junge Pflanzen mit der Wirkstoffzubereitung in der angegebenen Aufwandmenge besprüht. Nach Antrocknen des Spritzbelages werden die Pflanzen mit einer Konidiensuspension von Fusarium nivale (var. majus) besprüht.
Die Pflanzen werden in einem Gewächshaus unter lichtdurchlässigen Inkubationshauben bei einer Temperatur von ca.15°C und einer relativen Luftfeuchtigkeit von ca. 100 % aufgestellt.
6 Tage nach der Inokulation erfolgt die Auswertung. Dabei bedeutet 0% ein Wirkungsgrad, der demjenigen der Kontrolle entspricht, während ein Wirkungsgrad von 100% bedeutet, daß kein Befall beobachtet wird.

[7] = system: Erysiphe graminis f.sp, hordei; test: Erysiphe test (barley) / protective; format: in vivo; details: 1000 ppm Wirkstoff; barley plants sprayed protectively; evaluation 7 days after inoculation
Source text: Erysiphe-Test (Gerste) / protektiv
as §1
Zur Prüfung auf protektive Wirksamkeit besprüht man junge Pflanzen mit der Wirkstoffzubereitung in der angegebenen Aufwandmenge.
Nach Antrocknen des Spritzbelages werden die Pflanzen mit Sporen von Erysiphe graminis f.sp, hordei bestäubt.
Die Pflanzen werden in einem Gewächshaus bei einer Temperatur von ca. 20°C und einer relativen Luftfeuchtigkeit von ca. 80 % aufgestellt, um die Entwicklung von Mehltaupusteln zu begünstigen.
7 Tage nach der Inokulation erfolgt die Auswertung, Dabei bedeutet 0 % ein Wirkungsgrad, der demjenigen der Kontrolle entspricht, während ein Wirkungsgrad von 100 % bedeutet, daß kein Befall beobachtet wird.

[8] = HPLC on reversed-phase C 18 columns, EEC Directive 79/831 Annex V.A8, acidic aqueous mobile phase / acetonitrile, linear gradient 10% to 95% acetonitrile
[9] = from retention times, linear interpolation between alkan-2-ones

SMILES | chromatographic logP [1, 8] | chromatographic logP [1, 9] | other results
Cc1n[nH]c(=O)c(-c2ccccc2Cl)c1-c1ccc(Cl)s1 [4-(2-Chlorphenyl)-5-(5-chlor-2-thienyl)-6-methylpyridazin-3(2H)-on] | – | 2.83 | –
CC1(O)OC(=O)C(c2c(F)cccc2Cl)=C1c1cccs1 (centres unmarked) [3-(2-Chlor-6-fluorphenyl)-4-(2-thienyl)-5-hydroxy-5-methylfuran-2(5H)-on] | – | 2.61 | –
CC1(O)OC(=O)C(c2ccc(F)cc2Br)=C1c1ccc(Cl)s1 (centres unmarked) [3-(2-Brom-4-fluorphenyl)-4-(5-chlor-2-thienyl)-5-hydroxy-5-methylfuran-2(5H)-on] | – | 3.3 | –
CC1(O)OC(=O)C(c2c(F)cccc2F)=C1c1ccc(Cl)s1 (centres unmarked) [4-(5-Chlor-2-thienyl)-3-(2,6-difluorphonyl)-5-hydroxy-5-methylfuran-2(5H)-on] | – | 2.94 | –
CC1(O)OC(=O)C(c2ccccc2Cl)=C1c1cccs1 (centres unmarked) [3-(2-Chlorphenyl)-4-(2-thienyl)-5-hydroxy-5-methylfuran-2(5H)-on] | – | 2.44 | –
CC1(O)OC(=O)C(c2c(F)cccc2F)=C1c1nccs1 (centres unmarked) [3-(2,6-Difluorphonyl)-4-(2-thiazolyl)-5-hydroxy-5-methylfuran-2(5H)-on] | – | 1.92 | –
CC1(O)OC(=O)C(c2ccccc2F)=C1c1cccs1 (centres unmarked) [3-(2-Fluorphenyl)-4-(2-thienyl)-5-hydroxy-5-methylfuran-2(5H)-on] | – | 2.29 | –
Cc1n[nH]c(=O)c(-c2ccc(F)cc2Cl)c1-c1ccc(Cl)s1 [4-(2-Chlor-4-fluorphenyl)-5-(5-chlor-2-thienyl)-6-methylpyridazin-3(2H)-on] | – | 2.97 | –
Cc1n[nH]c(=O)c(-c2cccc3c2OC(F)(F)O3)c1-c1ccc(Cl)s1 [5-(5-Chlor-2-thienyl)-4-(2,2-difluor-1,3-benzodioxol-4-yl)-6-methylpyridazin-3(2H)-on] | – | 3.18 | –
Cc1n[nH]c(=O)c(-c2cccc(Cl)c2)c1-c1ccc(Cl)s1 [4-(3-Chlorphenyl)-5-(5-chlor-2-thienyl)-6-methylpyridazin-3(2H)-on] | – | 3.04 | –
Cc1nnc(Cl)c(-c2ccccc2Cl)c1-c1cccs1 [compound 59] | 3.29 | – | –
Cc1n[nH]c(=O)c(-c2c(Cl)cccc2Cl)c1-c1ccc(Cl)s1 [5-(5-Chlor-2-thienyl)-4-(2,6-dichlorphenyl)-6-methylpyridazin-3(2H)-on] | – | 3.11 | –

The next lines start with results.

chromatographic logP [1, 8] | chromatographic logP [1, 9] | SMILES | other results
2.88 | – | Cc1ccc(-c2c(C)nnc(Cl)c2-c2c(F)cccc2F)nc1C [Beispiel 101] | Wirkungsgrad [2]: ≥ 70%
4.16 | – | Cc1nnc(Cl)c(-c2c(F)cccc2Cl)c1-c1ccc(Cl)s1 [Beispiel 94] | Wirkungsgrad [2]: ≥ 70%; Wirkungsgrad [3]: ≥ 70%
3.84 | – | Cc1nnc(Cl)c(-c2c(F)cccc2F)c1-c1ccc(Cl)s1 [Beispiel 103] | Wirkungsgrad [2]: ≥ 70%; Wirkungsgrad [3]: ≥ 70%
3.12 | – | Cc1nnc(Cl)c(-c2c(F)cccc2F)c1-c1cccs1 [Beispiel 100] | Wirkungsgrad [2]: ≥ 70%; Wirkungsgrad [4]: ≥ 70%; Wirkungsgrad [5]: ≥ 70%; Wirkungsgrad [3]: ≥ 70%; Wirkungsgrad [6]: ≥ 70%; Wirkungsgrad [7]: ≥ 70%
– | 2.06 | Cc1ccc(-c2c(C)n[nH]c(=O)c2-c2cc(F)c(F)cc2F)nc1C [5-(5,6-Dimethyl-2-pyridyl)-4-(2,4,5-trifluorphenyl)-6-methylpyridazin-3(2H)-on] | –
4.28 | – | Cc1nnc(Cl)c(-c2ccc(F)cc2Br)c1-c1ccc(Cl)s1 [compound 10] | –
4.07 | – | Cc1nnc(Cl)c(-c2cccc(Cl)c2)c1-c1ccc(Cl)s1 [compound 173] | –
2.08 | – | Cc1nnc(Cl)c(-c2c(F)cccc2F)c1-c1ccncc1 [compound 102] | –
– | 2.89 | Cc1ccc(C2=C(c3cc(F)c(F)cc3F)C(=O)OC2(C)O)nc1C (centres unmarked) [3-(2,4,5-Trilluorphenyl)4-(5,6-Dimethyl-2-pyridyl)-5-hydroxy-5-methylfuran-2(5H)-on] | –
– | 3.14 | Cc1ccc(C2=C(c3c(Cl)cccc3Cl)C(=O)OC2(C)O)nc1C (centres unmarked) [3-(2,6-Dichlorphenyl)-4-(5,6-Dimethyl-2-pyridyl)5-hydroxy-5-methylfuran-2(5H)-on] | –
3.15 | – | Cc1ccc(-c2c(C)nnc(Cl)c2-c2cc(F)c(F)cc2F)nc1C [compound 87] | –
4.16 | – | Cc1ccc(-c2c(C)nnc(Cl)c2-c2c(Cl)cccc2Cl)nc1C [compound 47] | –
– | 2.19 | Cc1ccc(-c2c(C)n[nH]c(=O)c2-c2c(F)cccc2F)o1 [5-(5-Methyl-2-furyl)-4-(2,6-difluorphenyl)-6-methylpyridazin-3(2H)-on] | –
3.42 | – | Cc1nnc(Cl)c(-c2cc(F)ccc2F)c1-c1ccc(Cl)s1 [compound 119] | –
3.45 | – | Cc1nnc(Cl)c(-c2ccc(F)cc2Cl)c1-c1cccs1 [Beispiel 37] | Wirkungsgrad [2]: ≥ 70%; Wirkungsgrad [3]: ≥ 70%
4.33 | – | Cc1nnc(Cl)c(-c2cccc3c2OC(F)(F)O3)c1-c1ccc(Cl)s1 [compound 1] | –
